According to ChEMBL document CHEMBL3137667, “[Drug-induced liver injury; fourteenth updated edition of the bibliographic database of liver injuries and related drugs]” (Gastroenterol Clin Biol, 2004):
*1 amine or outer side, *2 acyl side, *3 side chain or, on linkers, in order; H or OH if unused. Where a SMILES comes first, the peptide text is derived from it. Bridges are numbered along the chain shown (N, C = ends). [ ]: non-standard residue; d: D form. The star is where a group is joined. ξ: configuration not given here. X2 = N=C1NCCC([C@H](N[*:1])C(=O)[*:2])N1; ΔAla(Z-3-ureido) = NC(=O)N/C=C(\N)C(=O)O; ξβ3hOrn = NCCCC(N)CC(=O)*; Dap = NC[C@H](N)C(=O)O

Assays:
[1] = human
[2] = human; remark: listed apart in the source
[3] = human; remark: listed apart in the source
[4] = human; remark: listed apart in the source
[5] = human, serum
[6] = human, serum; remark: listed apart in the source
[7] = human, serum, 4383 h
[8] = human; remark: listed apart in the source
[9] = Highest frequency of moderate liver toxicity observed during clinical trials, expressed as a percentage. [column '% BIOL' in source]; settings: human
[10] = Highest frequency of acute liver toxicity observed during clinical trials, expressed as a percentage. [column '% AIGUE' in source]; settings: human
[11] = human; remark: listed apart in the source
[12] = human; remark: listed apart in the source
[13] = human; remark: listed apart in the source
[14] = human; remark: listed apart in the source
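Throughout, for Hepatotoxicity (association with vascular disease): count of indexed literature references reporting vascular liver injury in humans, e.g. peliosis hepatitis, hepatic veno-occlusive disease or Budd-Chiari syndrome.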
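Throughout, for Hepatotoxicity (benign tumour): value is a count of indexed literature references citing a benign tumour confirmed by histopathology.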
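Throughout, for Hepatotoxicity (choleostasis): human cholestatic liver injury, shown by histopathology or by peak ALT or AST elevation over alkaline phosphatase ratio below 2, value counts indexed literature reports.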
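Throughout, for Hepatotoxicity (chronic liver disease): chronic liver injury confirmed by histopathology or persistently raised serum aminotransferase activity beyond 6 months, value given as the count of indexed literature references.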
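Throughout, for Hepatotoxicity (cirrhosis): value is a count of indexed literature references reporting cirrhosis confirmed by histopathology.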
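Throughout, for Hepatotoxicity (cytolytic): human cytolytic liver injury, shown by histopathology or by a ratio above 5 of peak ALT or AST elevation to alkaline phosphatase elevation, value counts indexed references.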
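Throughout, for Hepatotoxicity (granulomatous hepatitis): value is a count of indexed literature references reporting granulomatous liver disease confirmed by histopathology.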
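Throughout, for Hepatotoxicity (malignant tumour): malignant tumour confirmed by histopathology, value gives the count of indexed literature references reporting it.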
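Throughout, for Hepatotoxicity (severe hepatitis): human clinical data: severe hepatitis, meaning potentially life-threatening liver failure or clinically observed cases, the value counts how many indexed literature references report it.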
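Throughout, for Hepatotoxicity (steatosis): steatosis confirmed by histopathology, value is the count of indexed references.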

| Compound | Hepatotoxicity (granulomatous hepatitis) [1] | Hepatotoxicity (steatosis) [2] | Hepatotoxicity (cirrhosis) [3] | Hepatotoxicity (cytolytic) [4] | Hepatotoxicity (acute) [5] | Hepatotoxicity (moderate) [6] | Hepatotoxicity (chronic liver disease) [7] | Hepatotoxicity (association with vascular disease) [8] | Hepatotoxicity (moderate) [9] [%] | Hepatotoxicity (acute) [10] [%] | Hepatotoxicity (choleostasis) [11] | Hepatotoxicity (severe hepatitis) [12] | Hepatotoxicity (malignant tumour) [13] | Hepatotoxicity (benign tumour) [14] |
| --- | --- | --- | --- | --- | --- | --- | --- | --- | --- | --- | --- | --- | --- | --- |
| CCC/C=C/C=C/C(=O)O[C@H]1/C(=C/C(=O)OC)C[C@H]2C[C@H]([C@@H](C)O)OC(=O)C[C@H](O)C[C@@H]3C[C@H](OC(C)=O)C(C)(C)[C@](O)(C[C@@H]4C/C(=C/C(=O)OC)C[C@H](/C=C/C(C)(C)[C@]1(O)O2)O4)O3 [BRYOSTATIN 1] | 0 | 0 | 0 | 0 | 1 | 2 | 0 | 0 | 16.7 | 8.3 | 1 | 0 | 0 | 0 |
| CC(C)C[C@H](NC(=O)[C@H](CCCCN)NC(=O)CNC(=O)[C@H](CC(C)C)NC(=O)[C@@H](NC(=O)[C@@H]1CSSC[C@H](N)C(=O)N[C@@H](CO)C(=O)N[C@@H](CC(N)=O)C(=O)N[C@@H](CC(C)C)C(=O)N[C@@H](CO)C(=O)N[C@@H]([C@@H](C)O)C(=O)N1)C(C)C)C(=O)N[C@@H](CO)C(=O)N[C@@H](CCC(N)=O)C(=O)N[C@@H](CCC(=O)O)C(=O)N[C@@H](CC(C)C)C(=O)N[C@@H](Cc1c[nH]cn1)C(=O)N[C@@H](CCCCN)C(=O)N[C@@H](CC(C)C)C(=O)N[C@@H](CCC(N)=O)C(=O)N[C@H](C(=O)N[C@@H](Cc1ccc(O)cc1)C(=O)N1CCC[C@H]1C(=O)N[C@@H](CCCNC(=N)N)C(=O)N[C@H](C(=O)N[C@@H](CC(N)=O)C(=O)N[C@H](C(=O)NCC(=O)N[C@@H](CO)C(=O)NCC(=O)N[C@H](C(=O)N1CCC[C@H]1C(N)=O)[C@@H](C)O)[C@@H](C)O)[C@@H](C)O)[C@@H](C)O [CALCITONIN SALMON] | 0 | 0 | 0 | 0 | 0 | 1 | 0 | 0 | 3.1 | 0 | 0 | 0 | 0 | 0 |
| CCCCCOC(=O)Nc1nc(=O)n([C@@H]2O[C@H](C)[C@@H](O)[C@H]2O)cc1F [CAPECITABINE] | 0 | 0 | 0 | 0 | 0 | 1 | 0 | 0 | 61.8 | 0 | 0 | 0 | 0 | 0 |
| C[C@@H]1NC(=O)[C@@H](N)CNC(=O)[C@H](C2CCNC(=N)N2)NC(=O)/C(=C/NC(N)=O)NC(=O)[C@H](CNC(=O)CC(N)CCCN)NC1=O.N=C1NCCC([C@@H]2NC(=O)/C(=C/NC(N)=O)NC(=O)[C@H](CNC(=O)CC(N)CCCN)NC(=O)[C@H](CO)NC(=O)[C@@H](N)CNC2=O)N1 (stereo partly drawn) [CAPREOMYCIN] (H-[Dap]S[Dap](ξβ3hOrn)[ΔAla(Z-3-ureido)][X2]; lactam 1-C) | 0 | 0 | 0 | 0 | 0 | 3 | 0 | 0 | 0 | 0 | 0 | 0 | 0 | 0 |
| CC1(C)[C@@H](OC(=O)CCC(=O)O)CC[C@]2(C)[C@H]3C(=O)C=C4[C@@H]5C[C@@](C)(C(=O)O)CC[C@]5(C)CC[C@@]4(C)[C@]3(C)CC[C@@H]12 [CARBENOXOLONE] | 0 | 0 | 0 | 0 | 0 | 2 | 0 | 0 | 0 | 0 | 0 | 0 | 0 | 0 |
| C[C@@](Cc1ccc(O)c(O)c1)(NN)C(=O)O.O [CARBIDOPA] | 0 | 1 | 0 | 0 | 1 | 0 | 0 | 0 | 0 | 0 | 1 | 0 | 0 | 0 |
| N[C@@H](CSCC(=O)O)C(=O)O [CARBOCYSTEINE] | 0 | 0 | 0 | 0 | 0 | 1 | 0 | 0 | 0.8 | 0 | 0 | 0 | 0 | 0 |
| NC(=O)OC[C@@H]1[C@H](NC(=O)/C(=N\OCC(=O)O)c2csc(N)n2)C(=O)N1S(=O)(=O)O [CARUMONAM] | 0 | 0 | 0 | 0 | 0 | 24 | 0 | 0 | 22 | 0 | 0 | 0 | 0 | 0 |
| CC[C@H](C)C[C@H](C)CCCCCCCCC(=O)N[C@H]1C[C@@H](O)[C@@H](NCCN)NC(=O)[C@@H]2[C@@H](O)CCN2C(=O)[C@H]([C@H](O)CCN)NC(=O)[C@H]([C@H](O)[C@@H](O)c2ccc(O)cc2)NC(=O)[C@@H]2C[C@@H](O)CN2C(=O)[C@H]([C@@H](C)O)NC1=O [CASPOFUNGIN] | 0 | 0 | 0 | 0 | 1 | 3 | 0 | 0 | 8.4 | 0 | 0 | 0 | 0 | 0 |
| CCN1CCN(C(=O)N[C@@H](C(=O)N[C@]2(OC)C(=O)N3C(C(=O)O)=C(CSc4nnnn4C)CS[C@@H]32)[C@H](C)O)C(=O)C1=O [CEFBUPERAZONE] | 0 | 0 | 0 | 0 | 0 | 2 | 0 | 0 | 6.4 | 0 | 0 | 0 | 0 | 0 |
| CO/N=C(\C(=O)N[C@@H]1C(=O)N2C(C(=O)[O-])=C(C[N+]34CCC(C(N)=O)(CC3)CC4)CS[C@H]12)c1nsc(N)n1 [CEFCLIDIN] | 0 | 0 | 0 | 0 | 0 | 49 | 0 | 0 | 40 | 0 | 0 | 1 | 0 | 0 |
| CO/N=C(\C(=O)N[C@@H]1C(=O)N2C(C(=O)OCOC(=O)C(C)(C)C)=C(/C=C\c3scnc3C)CS[C@H]12)c1csc(N)n1 [CEFDITOREN PIVOXIL] | 0 | 0 | 0 | 0 | 0 | 41 | 0 | 0 | 37.5 | 0 | 0 | 0 | 0 | 0 |
| CO[C@@]1(NC(=O)CSCC#N)C(=O)N2C(C(=O)O)=C(CSc3nnnn3C)CS[C@@H]21 [CEFMETAZOLE] | 0 | 0 | 0 | 0 | 0 | 5 | 0 | 0 | 9.1 | 0 | 0 | 0 | 0 | 0 |
